Tests used:
Assay type in all cases: in vivo, human
[1] = tested on: patients recruited within 30 days after a myocardial infarction; assay: COLCOT safety and adverse events (safety population)
Protocol: All serious adverse events were recorded. The only other adverse events recorded were those that were considered to be related to the gastrointestinal system, events that were judged by the investigator to be related to colchicine or placebo, or laboratory abnormalities that had been judged by the investigator to be clinically significant.

[2] = tested on: high-sensitivity C-reactive protein level and white-cell count; assay: COLCOT biomarkers of inflammation; details: for Hs-C reactive protein, geometric mean: N = 99; for Total white blood cell count, geometric mean: N = 992
From the text: (§1) Additional prespecified exploratory end points included the change from baseline to 6 months in the high-sensitivity C-reactive protein level and the change from baseline to 12 months in the white-cell count. The C-reactive protein biomarker substudy was implemented after a protocol amendment and was optional for sites and for patients; 34 sites chose to participate in this substudy.
(§2) The analysis of the primary end point was repeated in the per-protocol population (i.e., patients without major protocol deviations). Secondary and exploratory end points expressed as time to event were analyzed similarly. The changes from baseline to follow-up were analyzed with the use of an analysis of covariance model with adjustment for baseline value, and estimates of treatment effect are presented with 95% confidence intervals.
(§3) High-sensitivity C-reactive protein was measured in a subgroup of only 207 patients at the time of randomization and 6 months later, and the median concentration at trial entry was 4.28 mg per liter. […] The adjusted geometric mean percent changes in the high-sensitivity C-reactive protein level at 6 months after myocardial infarction were −70.0% in the colchicine group and −66.6% in the placebo group, and the placebo-adjusted geometric mean percent change was −10.1% percentage points in the colchicine group (95% CI, −28.6 to 13.4) (Table 17).
(§4) In Table 17, the placebo-adjusted geometric mean percent change was obtained by exponentiating the adjusted mean difference between groups from the analysis of covariance model (based on log-transformed data), then subtracting 1 and multiplying by 100.
(§5) In addition, the C-reactive protein biomarker sub-study was implemented following a protocol amendment and was optional for sites and for patients; 34 sites accepted to participate in this substudy. There were 213 and 208 patients who provided blood samples at baseline and 6 months, respectively. Paired baseline and 6-month hs-CRP values were available in 207 patients. Clinically available white blood cell counts were obtained from 2598 patients at baseline and 1998 patients at 12 months, and paired baseline and 12-month values were available in 1972 patients. Statistical analysis was conducted on the patients who provided both baseline and follow-up data and as these were exploratory analyses, no missing data was imputed.

[3] = COLCOT biomarkers of inflammation; details: baseline to 12 months
From the text: as §1, §2, §3, §4, §5

[4] = safety population, listed as colchicine
[5] = baseline to 12 months, listed as colchicine

Question: With `COc1cc2c(c(OC)c1OC)-c1ccc(OC)c(=O)cc1[C@@H](NC(C)=O)CC2` [Colchicine, colchicine] as the compound, how does the “trial regimen discontinued, % of patients” value ([1]; at the end of the trial) read?
Answer: Its value is 18.4%.

Question: And the “incidence of septic shock” value ([1]; in contrast to canakinumab)?
Answer: Its value is “did not increase”.

Question: What about the “Anemia, number of patients” value ([1]; safety population) of the same compound?
Answer: Its value is 14 number.

Question: What about the “Anemia, percent of patients” value ([1]; safety population) of the same compound?
Answer: The value was “(0.6) percent”.

Question: And the “Any related adverse event, percent of patients” value ([1]; safety population)?
Answer: Its value is “(16.0) percent”.

Question: What about the “Any serious adverse event, number of patients” value ([1]; safety population) of the same compound?
Answer: The value was 383 number.

Question: What about the “Any serious adverse event, percent of patients” value ([1]; safety population) of the same compound?
Answer: The value was “(16.4) percent”.

Question: What about the “Cancer, number of patients” value ([1]; safety population) of the same compound?
Answer: Its value is 43 number.

Question: What about the “Cancer, percent of patients” value ([1]; safety population) of the same compound?
Answer: Its value is “(1.8) percent”.

Question: And the “Diarrhea adverse event, number of patients” value ([1]; safety population)?
Answer: The value was 225 number.

Question: And the “Diarrhea adverse event, percent of patients” value ([1]; safety population)?
Answer: Its value is “(9.7) percent”.

Question: And the “Flatulence adverse event, number of patients” value ([1]; safety population)?
Answer: Its value is 15 number.

Question: And the “Flatulence adverse event, percent of patients” value ([1]; safety population)?
Answer: Its value is “(0.6) percent”.

Question: And the “Gastrointestinal adverse event, number of patients” value ([1]; safety population)?
Answer: Its value is 408 number.

Question: What about the “Gastrointestinal adverse event, percent of patients” value ([1]; safety population) of the same compound?
Answer: The value was “(17.5) percent”.

Question: What about the “Gastrointestinal hemorrhage, number of patients” value ([1]; safety population) of the same compound?
Answer: Its value is 7 number.

Question: What about the “Gastrointestinal hemorrhage, percent of patients” value ([1]; safety population) of the same compound?
Answer: The value was “(0.3) percent”.

Question: And the “Gastrointestinal serious adverse event, number of patients” value ([1]; safety population)?
Answer: The value was 46 number.

Question: And the “Gastrointestinal serious adverse event, percent of patients” value ([1]; safety population)?
Answer: The value was “(2.0 ) percent”.

Question: And the “Hospitalization for heart failure, number of patients” value ([1]; safety population)?
Answer: The value was 25 number.

Question: And the “Hospitalization for heart failure, percent of patients” value ([1]; safety population)?
Answer: The value was “(1.1) percent”.

Question: What about the “Infection serious adverse event, number of patients” value ([1]; safety population) of the same compound?
Answer: Its value is 51 number.

Question: What about the “Infection serious adverse event, percent of patients” value ([1]; safety population) of the same compound?
Answer: Its value is “(2.2) percent”.

Question: And the “Leukopenia, number of patients” value ([1]; safety population)?
Answer: The value was 2 number.

Question: What about the “Leukopenia, percent of patients” value ([1]; safety population) of the same compound?
Answer: Its value is “(0.1) percent”.

Question: And the “Nausea adverse event, number of patients” value ([1]; safety population)?
Answer: The value was 43 number.

Question: And the “Nausea adverse event, percent of patients” value ([1]; safety population)?
Answer: Its value is “(1.8) percent”.

Question: What about the “Pneumonia serious adverse event, number of patients” value ([1]; safety population) of the same compound?
Answer: Its value is 21 number.

Question: And the “Pneumonia serious adverse event, percent of patients” value ([1]; safety population)?
Answer: The value was “(0.9) percent”.

Question: What about the “Septic shock serious adverse event, number of patients” value ([1]; safety population) of the same compound?
Answer: Its value is 2 number.

Question: What about the “Septic shock serious adverse event, percent of patients” value ([1]; safety population) of the same compound?
Answer: The value was “(0.1) percent”.

Question: What about the “Thrombocytopenia, number of patients” value ([1]; safety population) of the same compound?
Answer: Its value is 3 number.

Question: And the “Thrombocytopenia, percent of patients” value ([1]; safety population)?
Answer: The value was “(0.1) percent”.

Question: What about the “Any related adverse event, number of patients” value ([1]; safety population, N = 2330) of the same compound?
Answer: Its value is 372 number.

Question: What about the “Any related adverse event, percent of patients” value [1, 4] of the same compound?
Answer: The value was 16.0%.

Question: And the “Any serious adverse event, percent of patients” value [1, 4]?
Answer: Its value is 16.4%.

Question: What about the “Diarrhea adverse event, percent of patients” value [1, 4] of the same compound?
Answer: The value was 9.7%.

Question: What about the “Gastrointestinal adverse event, percent of patients” value [1, 4] of the same compound?
Answer: The value was 17.5%.

Question: What about the “Infection serious adverse event, percent of patients” value [1, 4] of the same compound?
Answer: The value was 2.2%.

Question: What about the “Nausea adverse event, percent of patients” value [1, 4] of the same compound?
Answer: Its value is 1.8%.

Question: And the “Pneumonia serious adverse event, percent of patients” value [1, 4]?
Answer: The value was 0.9%.

Question: And the “serious adverse event of myopathy linked to colchicine” value ([1]; statins used in 99% of trial participants)?
Answer: The value was “no serious adverse event”.

Question: And the “Hs-C reactive protein, geometric mean” value ([2]; 6 months)?
Answer: The value was 1.37 mg/L.

Question: And the “Circulating lymphocytes, geometric mean” value ([2]; 12 months)?
Answer: Its value is 1.83 10^3/μL.

Question: What about the “Circulating neutrophils, geometric mean” value ([2]; 12 months) of the same compound?
Answer: The value was 3.95 10^3/μL.

Question: What about the “Total white blood cell count, geometric mean” value ([2]; 12 months) of the same compound?
Answer: Its value is 6.95 10^3/μL.

Question: What about the “Circulating lymphocytes, geometric mean” value ([2]; Randomization) of the same compound?
Answer: Its value is 1.79 10^3/μL.

Question: What about the “Circulating neutrophils, geometric mean” value ([2]; Randomization) of the same compound?
Answer: The value was 5.45 10^3/μL.

Question: What about the “Hs-C reactive protein, geometric mean” value ([2]; Randomization) of the same compound?
Answer: Its value is 4.27 mg/L.

Question: And the “Total white blood cell count, geometric mean” value ([2]; Randomization)?
Answer: Its value is 8.54 10^3/μL.

Question: What about the “Hs-C reactive protein, Adjusted GM percent change” value ([2]; baseline to 6 months) of the same compound?
Answer: Its value is −70.0%.

Question: What about the “Hs-C reactive protein, Placebo-adjusted GM percent change” value ([2]; baseline to 6 months) of the same compound?
Answer: The value was −10.1%.

Question: What about the “Circulating lymphocytes, Placebo-adjusted GM percent change” value ([2]; baseline to 12 months) of the same compound?
Answer: The value was 1.10%.

Question: And the “Circulating neutrophils, Adjusted GM percent change” value ([2]; baseline to 12 months)?
Answer: Its value is −27.63%.

Question: What about the “Circulating neutrophils, Placebo-adjusted GM percent change” value ([2]; baseline to 12 months) of the same compound?
Answer: The value was 0.45%.

Question: What about the “Total white blood cell count, Adjusted GM percent change” value ([2]; baseline to 12 months) of the same compound?
Answer: Its value is −18.81%.

Question: And the “Total white blood cell count, Placebo-adjusted GM percent change” value ([2]; baseline to 12 months)?
Answer: Its value is 0.26%.

Question: What about the “Total white blood cell count, Adjusted GM percent change” value [2, 5] of the same compound?
Answer: The value was −18.8%.

Question: And the “Total white blood cell count, Placebo-adjusted GM percent change” value [2, 5]?
Answer: Its value is 0.3%.

Question: And the “reduction in the C-reactive protein level” value ([2]; over the first 6 months after myocardial infarction, both trial groups)?
Answer: Its value is > 65%.

Question: And the “Circulating lymphocytes, Adjusted GM percent change” value [3]?
Answer: Its value is 1.80%.

Reference: patent publication US11400063B2, “Early administration of low-dose colchicine after myocardial infarction” (INSTITUT DE CARDIOLOGIE DE MONTREAL, priority 2019, dated 2022)
